Results on 4 molecules are retold here after patent US20080234229A1, “Novel Therapeutic Agents for the Treatment of Cancer, Metabolic Diseases and Skin Disorders” (AUSPEX PHARMACEUTICALS, INC., priority 2005, published 2008).

The test system of one assay is A375 cells. The experiment in a line: A375 Tumor Cell Proliferation Assay (Alamar Blue). It counts as cell-based, human. As to conditions: for growth inhibitory effect compared to Targretin: FIG. 1; for TGI (Total Growth Inhibition) / IC50: A375 cells, 72 to 168 hours, reference data; for IC50: A-375, read-out: IC50 (50% Inhibitory Concentration). On the procedure: A375 cells (5,000 per well in 90% RPMI-1640 plus 10% Fetal Bovine Serum [FBS]) were pre-incubated in a black clear bottom 96-well plate in an atmosphere of 5% CO2 at 37° C. for 24 hours. Stock solutions of compounds in DMSO were diluted using a buffer and dilutions were added to each well. […] The final assay pH was 7.4. The cells were incubated in RPMI-1640 with each compound for an additional 72 to 168 hours. Alamar Blue was added and the plate was incubated for an additional 12 hours. Fluorescence intensity was measured using a Gemini plate reader with excitation at 530 nm and emission at 590 nm. A decrease of 50 percent or more (≧50%) in fluorescence intensity relative to vehicle treated controls is an indication of significant anti-cancer activity.
TGI (Total Growth Inhibition): Test compound concentration where the increase in number or mass of cells after 72 to 168 hours is reduced to equal that at time t=0.
Background: Alamar Blue is a resazurin reagent that responds to reducing activity.

In the next assay the test system is SW-480 cells. The experiment in a line: SW-480 Tumor Cell Proliferation Assay (Alamar Blue). The assay is classed as cell-based. Particulars: human SW480 carcinoma cells; for growth inhibitory effect compared to Targretin: FIG. 3; for growth inhibitory effect in the presence of Irinotican: varying concentrations, combination with Irinotican, FIG. 6 and 7. On the procedure: SW-480 cells (4×10^3/well in 90% EMEM medium plus 2 mM glutamine, 1 mM pyruvate, 0.1 mM non-essential amino acids and 10% Fetal Bovine Serum [FBS]), are pre-incubated in 96-well plates in an atmosphere of 5% CO2 at 37° C. for 24 hours. Test compounds and/or vehicle is then added to each well with a final concentration of 0.5% DMSO, pH 7.4 in EMEM for an additional 72 hours. After a further 6-hour incubation in the presence of Alamar Blue, fluorescence intensity is measured using a Gemini plate reader with excitation at 530 nm and emission at 590 nm.

The test system of the next assay is SKMES cells. As to the kind of experiment: SKMES Tumor Cell Proliferation Assay (Alamar Blue). The assay is classed as cell-based. Particulars: human SKMES carcinoma cells; for growth inhibitory effect compared to Targretin: FIG. 2. The method, then: SKMES cells (8×10^3/well in 90% RPMI-1640 medium plus 2 mM glutamine, 10 mM HEPES and 10% Fetal Bovine Serum [FBS]), are pre-incubated in 96-well plates in an atmosphere of 5% CO2 at 37° C. for 24 hours. Test compounds and/or vehicle is then added to each well with a final concentration of 0.5% DMSO, pH 7.4 in RPMI-1640 for an additional 72 hours. After a further 150 minutes incubation in the presence of Alamar Blue, fluorescence intensity is measured using a Gemini plate reader with excitation at 530 nm and emission at […].

The structures appear in SMILES notation.

For the molecule `C=C(c1ccc(B(O)O)cc1)c1cc2c(cc1C)C(C)(C)CCC2(C)C` [Example 5, 4-[1-(3,5,5,8,8-Pentamethyl-5,6,7,8-tetrahydro-naphthalen-2-yl)-vinyl]-phenylboronic acid], the “growth inhibitory effect compared to Targretin” value in the assay on A375 cells (human A375 carcinoma cells), with SW-480 cells and in the assay with SKMES cells was “enhanced activity” each time. Moreover, the “growth inhibitory effect in the presence of Taxol” value in the assay with A375 cells (human A375 carcinoma cells, varying concentrations, combination with Taxol, FIG. 5) is given as “synergism”; in the assay on SKMES cells (varying concentrations, combination with Taxol, FIG. 4), “synergism”. Further, the “growth inhibitory effect in the presence of Irinotican” value in the assay on SW-480 cells is recorded as “synergism”.

For `C=C(c1ccc(B2OC(C)(C)C(C)(C)O2)cc1)c1cc2c(cc1C)C(C)(C)CCC2(C)C` [Example 4, 4,4,5,5-Tetramethyl-2-{4-[1-(3,5,5,8,8-pentamethyl-5,6,7,8-tetrahydro-naphthalen-2-yl)-vinyl]-phenyl}-[1,3,2]dioxaborolane], the “growth inhibitory effect compared to Targretin” value in the assay with A375 cells (human A375 carcinoma cells), with SW-480 cells and in the assay with SKMES cells was “enhanced activity” throughout. The “growth inhibitory effect in the presence of Irinotican” value in the assay on SW-480 cells is on record as “synergism”.

In turn, `CO[C@@]12[C@H](COC(N)=O)C3=C(C(=O)C(C)=C(N)C3=O)N1C[C@@H]1N[C@@H]12` [Mitomycin] had a TGI (Total Growth Inhibition) in the assay with A375 cells of 8 µM. Also, the IC50 with A375 cells (Homo sapiens) is 4200 nM.

In turn, `COc1cccc2c1C(=O)c1c(O)c3c(c(O)c1C2=O)C[C@@](O)(C(=O)CO)C[C@@H]3O[C@H]1C[C@H](N)[C@H](O)[C@H](C)O1` [Doxorubicin] had a TGI (Total Growth Inhibition) with A375 cells of 0.3 µM. In addition, the IC50 in the assay with A375 cells (Homo sapiens) is 190 nM. Besides, the CC50 with A375 cells (Homo sapiens, A-375, read-out: LC50 (50% Lethal Concentration)) turned out to be 8 µM.
